Reference: ChEMBL document CHEMBL5465560, “Selectivity Literature for EUbOPEN Chemogenomic Library” (2024)

Columns and labels:
Mu-type opioid receptor = Mu-type opioid receptor (Homo sapiens, UniProt P35372); assay: Selectivity interaction (GPCR panel (PDSP screen)) EUB0000311b OPRM1; details: at 10 µM
[1] = biological target: Serine/threonine-protein kinase mTOR (Homo sapiens, UniProt P42345); assay: Selectivity interaction (KinomeScan (DiscoverX)) EUB0000595a MTOR; details: at 10 µM
[2] = biological target: Serine/threonine-protein kinase 24 (Homo sapiens) (UniProt Q9Y6E0); assay: Selectivity interaction (KinomeScan (DiscoverX)) EUB0001079a STK24; details: at 1 µM
[3] = biological target: T1, Mitogen-activated protein kinase 15 (Homo sapiens) (UniProt Q8TD08); assay: Selectivity interaction (Rxn Biology Kinase assay) EUB0001632a MAPK15; details: at 10 µM
T1 sequence (whole entry): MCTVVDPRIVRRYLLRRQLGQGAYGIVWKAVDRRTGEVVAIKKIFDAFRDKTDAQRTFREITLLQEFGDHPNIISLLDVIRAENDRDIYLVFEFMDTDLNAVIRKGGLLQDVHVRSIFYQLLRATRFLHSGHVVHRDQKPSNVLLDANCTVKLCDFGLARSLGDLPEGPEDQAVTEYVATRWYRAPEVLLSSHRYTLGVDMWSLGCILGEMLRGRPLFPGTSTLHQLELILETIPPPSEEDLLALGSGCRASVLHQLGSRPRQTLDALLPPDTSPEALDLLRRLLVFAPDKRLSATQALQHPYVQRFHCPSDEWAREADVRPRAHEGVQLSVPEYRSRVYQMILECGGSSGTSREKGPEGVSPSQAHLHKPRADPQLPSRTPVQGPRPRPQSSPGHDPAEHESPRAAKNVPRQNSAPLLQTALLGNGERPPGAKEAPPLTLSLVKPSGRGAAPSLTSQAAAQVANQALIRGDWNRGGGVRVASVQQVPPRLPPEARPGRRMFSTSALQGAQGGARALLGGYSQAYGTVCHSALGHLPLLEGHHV

[4] = biological target: Mitogen-activated protein kinase kinase kinase 10 (Homo sapiens) (UniProt Q02779); details: at 10 µM
Mitogen-activated protein kinase kinase kinase 10 (Homo sapiens), sequence (Q02779 whole entry, looked up): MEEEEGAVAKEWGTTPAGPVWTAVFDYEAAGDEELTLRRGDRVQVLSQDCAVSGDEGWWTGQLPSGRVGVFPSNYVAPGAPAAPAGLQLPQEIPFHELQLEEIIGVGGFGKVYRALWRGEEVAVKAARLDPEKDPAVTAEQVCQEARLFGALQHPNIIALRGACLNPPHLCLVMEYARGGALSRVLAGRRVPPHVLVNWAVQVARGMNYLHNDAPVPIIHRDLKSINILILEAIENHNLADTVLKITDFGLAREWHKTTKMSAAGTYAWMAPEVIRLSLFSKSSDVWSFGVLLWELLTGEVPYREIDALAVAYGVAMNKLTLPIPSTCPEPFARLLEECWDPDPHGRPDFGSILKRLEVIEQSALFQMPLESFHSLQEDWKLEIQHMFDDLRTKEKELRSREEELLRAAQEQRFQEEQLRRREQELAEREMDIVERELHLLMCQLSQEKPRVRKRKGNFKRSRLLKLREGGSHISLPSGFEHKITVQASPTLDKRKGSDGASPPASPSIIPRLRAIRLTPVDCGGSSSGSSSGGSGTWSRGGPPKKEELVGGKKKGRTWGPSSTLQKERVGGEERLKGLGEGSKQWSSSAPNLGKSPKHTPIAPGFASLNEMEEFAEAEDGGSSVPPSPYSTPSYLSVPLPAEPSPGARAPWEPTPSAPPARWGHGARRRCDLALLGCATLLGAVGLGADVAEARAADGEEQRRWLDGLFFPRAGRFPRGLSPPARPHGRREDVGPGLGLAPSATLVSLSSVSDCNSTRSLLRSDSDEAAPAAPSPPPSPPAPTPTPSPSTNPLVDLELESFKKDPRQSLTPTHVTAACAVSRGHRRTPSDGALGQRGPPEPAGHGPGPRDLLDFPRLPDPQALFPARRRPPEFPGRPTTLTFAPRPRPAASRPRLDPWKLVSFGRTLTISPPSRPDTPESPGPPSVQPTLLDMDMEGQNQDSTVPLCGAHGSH

[5] = biological target: Receptor tyrosine-protein kinase erbB-2 (Homo sapiens, UniProt P04626); assay: Selectivity interaction (KinomeScan (DiscoverX)) EUB0001049a ERBB2; details: at 1 µM
[6] = biological target: CDK3/Cyclin E (Homo sapiens) (UniProt P24864+Q00526); assay: (§1) Selectivity interaction (ProQinase) EUB0000171b CDK3; assay type: protein-complex assay
CDK3/Cyclin E (Homo sapiens), sequence (P24864 whole entry, looked up): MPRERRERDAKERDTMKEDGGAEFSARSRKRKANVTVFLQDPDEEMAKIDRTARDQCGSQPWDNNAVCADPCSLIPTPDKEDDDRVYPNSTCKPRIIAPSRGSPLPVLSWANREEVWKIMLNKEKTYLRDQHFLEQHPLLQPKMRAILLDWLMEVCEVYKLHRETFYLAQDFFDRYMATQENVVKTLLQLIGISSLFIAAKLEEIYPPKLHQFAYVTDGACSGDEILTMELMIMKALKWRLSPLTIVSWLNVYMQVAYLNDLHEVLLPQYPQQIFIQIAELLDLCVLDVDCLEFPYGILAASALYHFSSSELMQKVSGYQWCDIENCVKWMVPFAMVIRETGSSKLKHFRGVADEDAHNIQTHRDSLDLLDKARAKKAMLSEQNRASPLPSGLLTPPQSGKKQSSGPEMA
CDK3/Cyclin E (Homo sapiens), sequence (Q00526 whole entry, looked up): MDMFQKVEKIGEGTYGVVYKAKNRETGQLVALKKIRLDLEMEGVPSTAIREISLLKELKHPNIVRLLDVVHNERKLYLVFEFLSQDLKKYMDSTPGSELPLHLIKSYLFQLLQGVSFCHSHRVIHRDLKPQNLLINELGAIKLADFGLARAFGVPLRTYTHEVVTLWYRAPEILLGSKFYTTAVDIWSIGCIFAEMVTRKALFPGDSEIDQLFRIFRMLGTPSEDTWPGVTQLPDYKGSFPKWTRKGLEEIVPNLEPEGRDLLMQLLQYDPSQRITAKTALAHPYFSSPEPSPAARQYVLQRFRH

[7] = biological target: Cyclin-dependent kinase 3/Cyclin-C (Homo sapiens) (UniProt Q00526+P24863); assay: as §1; assay type: protein-complex assay
Cyclin-dependent kinase 3/Cyclin-C (Homo sapiens), sequence (P24863 whole entry, looked up): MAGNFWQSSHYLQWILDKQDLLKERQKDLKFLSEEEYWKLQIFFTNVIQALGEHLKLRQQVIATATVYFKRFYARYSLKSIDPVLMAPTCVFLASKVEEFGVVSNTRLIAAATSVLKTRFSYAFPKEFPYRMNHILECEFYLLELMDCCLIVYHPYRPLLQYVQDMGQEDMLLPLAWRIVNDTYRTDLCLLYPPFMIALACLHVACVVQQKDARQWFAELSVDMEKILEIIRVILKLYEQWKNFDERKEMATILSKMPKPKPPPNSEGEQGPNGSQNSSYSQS
Cyclin-dependent kinase 3/Cyclin-C (Homo sapiens), sequence (Q00526 whole entry, looked up): as the sequence (Q00526 whole entry, looked up) above

[8] = biological target: Serine/threonine-protein kinase B-raf (Homo sapiens, UniProt P15056, V600E); assay: Selectivity interaction (Radiometric kinase assay (using 10 uM ATP)) EUB0000601a BRAF
[9] = biological target: Wee1-like protein kinase (Homo sapiens) (UniProt P30291); assay: Selectivity interaction (KinomeScan (DiscoverX)) EUB0000607a WEE1; details: at 10 µM
Wee1-like protein kinase (Homo sapiens), sequence (P30291 whole entry, looked up): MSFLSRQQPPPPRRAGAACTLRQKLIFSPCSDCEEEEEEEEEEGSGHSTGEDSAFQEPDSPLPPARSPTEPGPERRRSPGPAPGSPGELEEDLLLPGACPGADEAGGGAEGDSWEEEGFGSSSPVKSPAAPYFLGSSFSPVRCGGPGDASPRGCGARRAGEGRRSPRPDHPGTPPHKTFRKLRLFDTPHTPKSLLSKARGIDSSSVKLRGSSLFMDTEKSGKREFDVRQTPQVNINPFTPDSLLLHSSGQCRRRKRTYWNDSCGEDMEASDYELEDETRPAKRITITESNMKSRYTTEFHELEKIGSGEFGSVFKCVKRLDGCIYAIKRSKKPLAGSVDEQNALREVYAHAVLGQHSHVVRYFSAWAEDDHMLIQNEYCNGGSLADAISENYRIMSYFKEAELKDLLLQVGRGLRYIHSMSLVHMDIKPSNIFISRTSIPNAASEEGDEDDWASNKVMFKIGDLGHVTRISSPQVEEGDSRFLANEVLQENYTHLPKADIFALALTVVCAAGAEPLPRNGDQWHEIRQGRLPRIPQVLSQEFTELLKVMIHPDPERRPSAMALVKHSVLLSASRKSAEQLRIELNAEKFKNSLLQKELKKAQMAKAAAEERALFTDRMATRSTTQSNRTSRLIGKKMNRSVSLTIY

[10] = biological target: Insulin receptor-related protein (Homo sapiens) (UniProt P14616); assay: Selectivity interaction (Kinase panel (Invitrogen)) EUB0000639a INSRR; details: at 200 nM
Insulin receptor-related protein (Homo sapiens), sequence (P14616 27-742 limits assumed): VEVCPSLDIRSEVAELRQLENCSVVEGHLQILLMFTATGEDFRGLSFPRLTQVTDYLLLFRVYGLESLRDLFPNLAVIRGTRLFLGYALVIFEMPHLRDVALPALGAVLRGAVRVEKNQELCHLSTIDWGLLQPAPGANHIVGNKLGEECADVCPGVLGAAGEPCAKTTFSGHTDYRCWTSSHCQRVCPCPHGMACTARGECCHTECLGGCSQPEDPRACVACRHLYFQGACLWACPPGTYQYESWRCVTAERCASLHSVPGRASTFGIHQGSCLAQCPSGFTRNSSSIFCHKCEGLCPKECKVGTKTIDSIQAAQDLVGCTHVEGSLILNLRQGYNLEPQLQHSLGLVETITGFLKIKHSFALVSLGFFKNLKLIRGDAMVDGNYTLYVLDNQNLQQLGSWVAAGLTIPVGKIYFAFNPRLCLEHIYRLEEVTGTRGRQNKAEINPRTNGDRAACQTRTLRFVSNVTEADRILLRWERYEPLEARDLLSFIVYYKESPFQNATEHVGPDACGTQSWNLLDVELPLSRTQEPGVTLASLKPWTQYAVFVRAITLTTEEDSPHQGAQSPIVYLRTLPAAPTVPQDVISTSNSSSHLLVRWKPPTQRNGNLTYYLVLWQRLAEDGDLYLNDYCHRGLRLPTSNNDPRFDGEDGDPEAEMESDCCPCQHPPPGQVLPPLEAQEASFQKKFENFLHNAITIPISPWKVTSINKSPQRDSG
Insulin receptor-related protein (Homo sapiens), sequence (P14616 747-1297 limits assumed): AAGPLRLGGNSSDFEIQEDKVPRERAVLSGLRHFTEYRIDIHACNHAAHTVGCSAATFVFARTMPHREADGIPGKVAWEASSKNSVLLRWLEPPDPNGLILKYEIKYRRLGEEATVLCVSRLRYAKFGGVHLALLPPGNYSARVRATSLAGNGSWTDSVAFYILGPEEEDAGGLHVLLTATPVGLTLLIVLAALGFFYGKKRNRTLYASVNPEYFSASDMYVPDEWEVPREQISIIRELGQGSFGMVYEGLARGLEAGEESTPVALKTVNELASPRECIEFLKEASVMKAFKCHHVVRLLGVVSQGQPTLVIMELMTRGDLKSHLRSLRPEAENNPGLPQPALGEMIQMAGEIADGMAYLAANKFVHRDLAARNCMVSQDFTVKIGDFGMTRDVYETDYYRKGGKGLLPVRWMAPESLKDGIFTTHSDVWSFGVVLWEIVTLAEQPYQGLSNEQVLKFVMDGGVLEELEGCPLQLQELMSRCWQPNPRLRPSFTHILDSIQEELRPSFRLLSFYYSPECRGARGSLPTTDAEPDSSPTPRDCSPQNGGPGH

[11] = biological target: T2, Bone morphogenetic protein receptor type-2 (Homo sapiens) (UniProt Q13873); assay: Selectivity interaction (Ambit KINOMEscan and KiNATiv profiling in Jurkat cells) EUB0000090b BMPR2; assay type: cell-based; details: at 1 µM
T2 sequence (whole entry): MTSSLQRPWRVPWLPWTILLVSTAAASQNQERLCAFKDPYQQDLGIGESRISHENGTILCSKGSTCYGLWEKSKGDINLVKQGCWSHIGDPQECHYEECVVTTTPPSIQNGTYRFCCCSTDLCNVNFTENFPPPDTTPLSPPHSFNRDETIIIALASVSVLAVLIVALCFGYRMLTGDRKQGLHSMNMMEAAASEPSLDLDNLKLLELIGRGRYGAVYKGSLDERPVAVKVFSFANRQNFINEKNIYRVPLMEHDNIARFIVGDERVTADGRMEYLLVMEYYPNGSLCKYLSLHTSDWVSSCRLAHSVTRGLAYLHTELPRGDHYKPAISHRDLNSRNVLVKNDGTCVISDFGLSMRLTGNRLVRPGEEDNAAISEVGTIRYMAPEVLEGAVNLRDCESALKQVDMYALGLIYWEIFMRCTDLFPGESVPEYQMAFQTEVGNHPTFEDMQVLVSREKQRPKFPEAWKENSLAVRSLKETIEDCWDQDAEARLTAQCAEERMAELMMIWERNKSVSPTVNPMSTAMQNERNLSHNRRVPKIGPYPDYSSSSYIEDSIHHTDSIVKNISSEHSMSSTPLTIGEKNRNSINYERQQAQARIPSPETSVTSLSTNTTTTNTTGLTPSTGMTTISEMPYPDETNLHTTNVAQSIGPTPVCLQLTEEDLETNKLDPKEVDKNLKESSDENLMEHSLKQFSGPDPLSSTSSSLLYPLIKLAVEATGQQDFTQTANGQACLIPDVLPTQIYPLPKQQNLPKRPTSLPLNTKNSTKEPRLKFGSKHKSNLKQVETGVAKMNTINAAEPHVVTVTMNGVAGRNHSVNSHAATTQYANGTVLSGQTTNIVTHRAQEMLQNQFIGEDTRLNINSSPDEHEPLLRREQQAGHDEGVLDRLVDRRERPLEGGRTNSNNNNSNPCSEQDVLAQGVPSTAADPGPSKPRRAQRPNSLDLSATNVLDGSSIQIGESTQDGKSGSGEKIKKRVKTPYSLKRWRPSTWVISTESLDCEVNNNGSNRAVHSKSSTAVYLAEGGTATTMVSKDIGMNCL

[12] = biological target: T3, Serine/threonine-protein kinase RIO1 (Homo sapiens) (UniProt Q9BRS2); assay: Selectivity interaction (Ambit KINOMEscan and KiNATiv profiling in Jurkat cells) EUB0000090b RIOK1; assay type: cell-based; details: at 1 µM
T3 sequence (whole entry): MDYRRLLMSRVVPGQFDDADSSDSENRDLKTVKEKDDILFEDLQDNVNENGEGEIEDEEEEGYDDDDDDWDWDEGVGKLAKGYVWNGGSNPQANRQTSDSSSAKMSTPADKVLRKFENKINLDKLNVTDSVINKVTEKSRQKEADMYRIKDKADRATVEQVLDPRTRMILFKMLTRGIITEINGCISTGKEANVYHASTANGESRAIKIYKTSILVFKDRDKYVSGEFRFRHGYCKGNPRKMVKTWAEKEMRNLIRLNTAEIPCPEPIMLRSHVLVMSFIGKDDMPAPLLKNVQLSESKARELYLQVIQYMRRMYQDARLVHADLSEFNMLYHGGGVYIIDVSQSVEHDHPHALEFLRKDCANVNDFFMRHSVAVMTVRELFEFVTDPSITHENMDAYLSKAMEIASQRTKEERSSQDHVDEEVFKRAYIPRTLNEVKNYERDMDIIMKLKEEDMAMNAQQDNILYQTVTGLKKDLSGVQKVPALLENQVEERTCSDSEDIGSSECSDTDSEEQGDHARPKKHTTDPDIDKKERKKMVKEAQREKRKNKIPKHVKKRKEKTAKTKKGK

Mu-type opioid receptor, sequence (P35372 whole entry): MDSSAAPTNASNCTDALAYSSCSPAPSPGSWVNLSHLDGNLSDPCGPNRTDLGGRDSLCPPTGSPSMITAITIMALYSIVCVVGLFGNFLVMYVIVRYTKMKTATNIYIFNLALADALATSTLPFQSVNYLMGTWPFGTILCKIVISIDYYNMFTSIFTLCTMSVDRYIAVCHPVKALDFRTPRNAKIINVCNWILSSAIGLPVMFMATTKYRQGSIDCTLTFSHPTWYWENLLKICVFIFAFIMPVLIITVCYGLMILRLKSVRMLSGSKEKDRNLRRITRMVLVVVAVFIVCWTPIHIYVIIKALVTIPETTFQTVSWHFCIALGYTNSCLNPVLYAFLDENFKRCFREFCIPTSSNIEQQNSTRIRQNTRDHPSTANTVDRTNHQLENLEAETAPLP

In the case of `CCc1ccccc1C(=O)Nc1n[nH]c2c(C)c(F)c(C3C(C#N)=C(C)N(C)C(C)=C3C#N)cc12` [BAY-3827], the % of inhibition (Mu-type opioid receptor) is reported as 30.5%.
`COCC(=O)NC/C=C/c1ccc2ncnc(Nc3ccc(Oc4ccc(C)nc4)c(C)c3)c2c1` [CP-724714] gave a % of control [1] of 79%.
In the case of `Nc1cnc(N2CCc3cc(S(=O)(=O)Nc4c(F)cc(Cl)cc4F)cc(N4CCCC4=O)c32)nc1` [TP-020n], the % of control [2] is reported as 100%.
`Cn1cc(-n2cnc3c(NCc4nc5cc(Cl)c(Cl)cc5[nH]4)nc(N4CCOCC4)nc32)cn1` gave a % of inhibition [3] of -25.6%.
`Cc1cc([C@@H](C)Nc2ccccc2C(=O)O)c2nc(N3CCOCC3)cc(=O)n2c1` [AZD-6482] was tested, and the % of control [4] was 96%.
Molecule `COc1cc(Nc2nc(C)cc(-c3cnn4nc(OC)ccc34)n2)cc(C(F)(F)F)c1` has a % of control [5] of 100%.
In the case of `C=CC(=O)Nc1cccc(C(=O)Nc2ccc(Nc3cc(-c4[nH]c(SC)nc4C)ccn3)cc2)c1`, the % of control ([6]; at 1 µM) is reported as 98%, the % of control ([6]; at 5 µM) is reported as 79% and the % of control ([7]; at 1 µM) is reported as 91%. For the same molecule, the % of control ([7]; at 5 µM) was 74%.
In the case of `CCc1cc(Nc2nccc(-c3c(-c4ccc(OC)c(C(=O)Nc5c(F)cccc5F)c4)nc4ccccn34)n2)c(OC)cc1N1CCC(N2CCN(S(C)(=O)=O)CC2)CC1`, the IC50 [8] is reported as > 2 µM.
`CNC(=O)Nc1ccc(-c2nc(N3CC4CCC(C3)O4)c3cnn(C4CCC5(CC4)OCCO5)c3n2)cc1` gave a % of control [9] of 79%.
`CC[C@@H]1[C@H](F)C(=O)N[C@@H]1COc1nccc2cc(C(N)=O)c(OC)cc12` [ZIMLOVISERTIB] was tested, and the % of inhibition [10] was 2.97%.
Molecule `CN(C)C/C=C/C(=O)Nc1ccc(C(=O)N2CCCC(Nc3ncc(Cl)c(-c4c[nH]c5ccccc45)n3)C2)cc1` (stereo not given) has a % of control [11] of 100% and a % of control [12] of 100%.
